For 11 compounds, IC50 results are on record in patent US9187464B2, “TRPV4 antagonists” (GlaxoSmithKline Intellectual Property (No. 2) Limited, priority 2011, dated 2015).

As a reminder, the IC50 is the concentration that gives 50% inhibition.

The target of this assay is T1, human TRPV4 (Homo sapiens, UniProt Q9HBA0).
T1 construct: expressed in transfected cells; host or cells: HEK-293-MSR-II cells transduced with 1% BacMam virus
Description: Ligand-gated assay (Fluo4 calcium, FLIPR; inhibition of agonist-induced activation). In kind it is cell-based. The following applies: HEK-293-MSR-II cells transduced with BacMam human TRPV4; agonist at EC80. An outline of the steps:
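Agonist (EC80) response read on FLIPR as Fluo-4 (2 uM) fluorescence after 10-min room-temperature compound exposure in HBSS/HEPES pH 7.4 with 0.01% Chaps. Cells: HEK-293-MSR-II expressing human TRPV4 via BacMam; output is IC50 of inhibition.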

T1 sequence (Q9HBA0 whole entry): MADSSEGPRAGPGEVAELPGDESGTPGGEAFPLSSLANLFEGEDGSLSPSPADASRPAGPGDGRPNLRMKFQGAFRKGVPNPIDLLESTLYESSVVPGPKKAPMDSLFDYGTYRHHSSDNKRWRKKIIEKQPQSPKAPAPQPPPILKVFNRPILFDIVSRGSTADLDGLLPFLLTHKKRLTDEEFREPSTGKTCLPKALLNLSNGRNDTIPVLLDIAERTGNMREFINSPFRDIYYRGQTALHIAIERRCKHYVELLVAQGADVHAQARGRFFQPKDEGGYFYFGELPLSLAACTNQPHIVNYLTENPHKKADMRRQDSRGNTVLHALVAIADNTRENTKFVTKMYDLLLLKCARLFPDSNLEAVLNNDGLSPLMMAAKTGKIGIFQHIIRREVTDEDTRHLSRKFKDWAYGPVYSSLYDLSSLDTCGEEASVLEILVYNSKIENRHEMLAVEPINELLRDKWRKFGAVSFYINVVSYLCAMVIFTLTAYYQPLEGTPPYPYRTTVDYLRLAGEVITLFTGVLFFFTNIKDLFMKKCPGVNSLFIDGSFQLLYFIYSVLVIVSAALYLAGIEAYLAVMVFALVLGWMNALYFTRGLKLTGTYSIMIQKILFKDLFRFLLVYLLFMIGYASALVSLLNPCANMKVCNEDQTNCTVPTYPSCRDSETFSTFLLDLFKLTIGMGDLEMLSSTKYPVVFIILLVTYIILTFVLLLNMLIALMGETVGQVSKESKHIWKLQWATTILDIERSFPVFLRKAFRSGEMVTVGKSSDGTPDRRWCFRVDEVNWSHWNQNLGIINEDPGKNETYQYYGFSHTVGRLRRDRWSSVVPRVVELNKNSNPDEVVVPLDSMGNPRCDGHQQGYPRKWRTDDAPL

Take `CC(C)(C)c1ccc(N2C[C@@]3(CCC[C@](C)(Cn4cnc5ccc(C#N)cc54)C3)OC2=O)nn1` [Example 48, 1-(((5S,7S)-3-(6-(tert-butyl)pyridazin-3-yl)-7-methyl-2-oxo-1-oxa-3-azaspiro[4.5]decan-7-yl)methyl)-1H-benzo[d]imidazole-6-carbonitrile]: the IC50 was in the range of 0.1 to 10 nM.

As for `Cc1cc(N2CCOCC2)ncc1N1C[C@@]2(CCC[C@](C)(Cn3cnc4ccc(C#N)cc43)C2)OC1=O` [Example 166, 1-(((5S,7S)-7-methyl-3-(4-methyl-6-morpholinopyridin-3-yl)-2-oxo-1-oxa-3-azaspiro[4.5]decan-7-yl)methyl)-1H-benzo[d]imidazole-6-carbonitrile], the IC50 lay in the range of 0.1 to 10 nM. In the case of `N#Cc1ccc2ncn(C[C@H]3CCC[C@]4(C3)CN(Cc3csc5ccc(Cl)cc35)C(=O)O4)c2c1` [Example 27, 1-({(5S,7S)-3-[(5-Chloro-1-benzothien-3-yl)methyl]-2-oxo-1-oxa-3-azaspiro[4.5]dec-7-yl}methyl)-1H-benzimidazole-6-carbonitrile] it was 0.1 to 10 nM; in that of `Cn1nc(C(C)(C)C)cc1N1C[C@@]2(CCC[C@](C)(Cn3cnc4ccc(C#N)cc43)C2)OC1=O` [Example 36, 1-({(5S,7S)-3-[3-(1,1-dimethylethyl)-1-methyl-1H-pyrazol-5-yl]-7-methyl-2-oxo-1-oxa-3-azaspiro[4.5]dec-7-yl}methyl)-1H-benzimidazole-6-carbonitrile], 50 to 500 nM. In the case of `COc1cccnc1N1C[C@@]2(CCC[C@](C)(Cn3cnc4ccc(C#N)cc43)C2)OC1=O` [Example 138, 1-({(5S,7S)-7-methyl-3-[3-(methyloxy)-2-pyridinyl]-2-oxo-1-oxa-3-azaspiro[4.5]dec-7-yl}methyl)-1H-benzimidazole-6-carbonitrile] it was 50 to 500 nM; in that of `C=C(C)c1cc(N2C[C@@]3(CCC[C@](C)(Cn4cnc5ccc(C#N)cc54)C3)OC2=O)on1` [Example 56, 1-(((5S,7S)-7-methyl-2-oxo-3-(3-(prop-1-en-2-yl)isoxazol-5-yl)-1-oxa-3-azaspiro[4.5]decan-7-yl)methyl)-1H-benzo[d]imidazole-6-carbonitrile], 10 to 50 nM. In the case of `CC(C)c1cc(N2C[C@@]3(CCC[C@](C)(Cn4cnc5ccc(C#N)cc54)C3)OC2=O)on1` [Example 30, 1-({(5S,7S)-7-methyl-3-[3-(1-methylethyl)-5-isoxazolyl]-2-oxo-1-oxa-3-azaspiro[4.5]dec-7-yl}methyl)-1H-benzimidazole-6-carbonitrile], the IC50 lay in the range of 10 to 50 nM. On to `N#Cc1ccc2ncn(C[C@H]3CCC[C@]4(C3)CN(Cc3cn(-c5cccc(F)c5)nn3)C(=O)O4)c2c1` [Example 94, 1-[((5S,7S)-3-{[1-(3-fluorophenyl)-1H-1,2,3-triazol-4-yl]methyl}-2-oxo-1-oxa-3-azaspiro[4.5]dec-7-yl)methyl]-1H-benzimidazole-6-carbonitrile], for which the IC50 lay in the range of 10 to 50 nM. The figure for `CCOc1cnc(CN2C[C@@]3(CCC[C@](C)(Cn4cnc5ccc(C#N)cc54)C3)OC2=O)cn1` [Example 155] is 0.1 to 10 nM; for `CC(C)(CN1C[C@@]2(CCC[C@H](Cn3cnc4ccc(C#N)cc43)C2)OC1=O)c1nc(C2CCOCC2)no1` [Example 65, 1-[((5S,7S)-3-{2-methyl-2-[3-(tetrahydro-2H-pyran-4-yl)-1,2,4-oxadiazol-5-yl]propyl}-2-oxo-1-oxa-3-azaspiro[4.5]dec-7-yl)methyl]-1H-benzimidazole-6-carbonitrile] it is 10 to 50 nM; for `C[C@]1(Cn2cnc3ccc(C#N)cc32)CCC[C@@]2(CN(c3ncc(Cl)cc3F)C(=O)O2)C1` [Example 114, 1-(((5S,7S)-3-(5-chloro-3-fluoropyridin-2-yl)-7-methyl-2-oxo-1-oxa-3-azaspiro[4.5]decan-7-yl)methyl)-1H-benzo[d]imidazole-6-carbonitrile] it is 0.1 to 10 nM.
